In US7091038B2, “Ecdysone receptor-based inducible gene expression system” (RheoGene, Inc., priority 2000, dated 2006):

How the values were obtained:
[1] = target: T1, DmVgRXR + MmRXR (Drosophila melanogaster, UniProt P34021, E282G/G283S/G286V); assay: Transactivation of reporter gene through switch 1.8 in 3T3 cells; assay type: cell-based, Drosophila melanogaster; Mus musculus; details: switch 1.8, pIND(SP1)LacZ
[2] = test system: GAL4RXR + VP16CfEcR; assay: Transactivation of reporter gene through switch 1.3 in 293 cells; assay type: cell-based, Mus musculus; Choristoneura fumiferana; details: switch 1.3, pGAL4RELuc
Description: (§1) The cells were harvested and reporter activity was assayed.
(§2) The same procedures described for CHO were followed for 293 cells except that the cells were plated in biocoated plates to avoid clumping.
(§3) Cells were harvested 24–48 hr after adding ligands. […] Twenty μl of lysate was assayed.

[3] = test system: CfVgRXR; assay: Transactivation of reporter gene through switch 1.10 in 293 cells; assay type: cell-based, Choristoneura fumiferana; details: switch 1.10, pIND(SP1)LacZ
Description: (§4) This example was prepared in the same way as switch 1.9 except MmRXR (SEQ ID NO: 62) was deleted.
as §1, §2, §3

[4] = test system: CfVgRXR + MmRXR; assay: Transactivation of reporter gene through switch 1.9 in 3T3 cells; assay type: cell-based, Choristoneura fumiferana; Mus musculus; details: switch 1.9, pIND(SP1)LacZ
Description: (§5) This example was prepared in the same way as switch 1.8 except DmEcR was replaced with a truncated CfEcR comprising a partial A/B domain and the complete CDEF domains [SEQ ID NO: 70 (polynucleotide) and SEQ ID NO: 71 (polypeptide)].
as §1
(§6) The cells were plated when they reached 50% confluency.
as §3

[5] = test system: CfVgRXR; assay: Transactivation of reporter gene through switch 1.10 in 3T3 cells; assay type: cell-based, Choristoneura fumiferana; details: switch 1.10, pIND(SP1)LacZ
Description: as §4, §1, §6, §3

[6] = test system: GAL4RXR + VP16CfEcR; assay: Transactivation of reporter gene through switch 1.3 in 3T3 cells
Excerpt: In various cellular backgrounds, including mammalian cells, insect ecdysone receptor (EcR) heterodimerizes with retinoid X receptor (RXR) and, upon binding of ligand, transactivates genes under the control of ecdysone response elements. […] The prepared receptor constructs comprise a ligand binding domain of EcR and of RXR or of USP; a DNA binding domain of GAL4 or of EcR; and an activation domain of VP16. The reporter constructs include a reporter gene, luciferase or LacZ, operably linked to a synthetic promoter construct that comprises either GAL4 or EcR/USP binding sites (response elements). Various combinations of these receptor and reporter constructs were cotransfected into CHO, NIH3T3, CV1 and 293 cells.
The same procedures described for CHO cells were followed for 3T3 cells as well with two modifications. The cells were plated when they reached 50% confluency. 125,000 or 50,000 or 25,000 cells were plated per well of 6- or 12- or 24-well plates respectively. […] The ligand treatments were performed as described in the CHO cell section above.

[7] = target: T1, DmVgRXR + MmRXR; assay: Transactivation of reporter gene through switch 1.8 in CV1 cells; assay type: cell-based, Drosophila melanogaster; Mus musculus; parameters: host or cells: CHO, NIH3T3, 293 or CV1 cells; details: switch 1.8, pIND(SP1)LacZ
Excerpt: This system was purchased from Invitrogen Corp., Carlsbad, California. It comprises a Drosophila melanogaster EcR (“DmEcR”) with a modified DNABD fused to VP16AD and placed under the control of a CMV promoter (SEQ ID NO: 68). Full length MmRXR (SEQ ID NO: 62) was placed under the control of the RSV promoter (SEQ ID NO: 69). The reporter, pIND(SP1)LacZ, contains five copies of a modified ecdysone response element (“EcRE”, E/GRE), three copies of an SPI enhancer, and a minimal heat shock promoter, all of which were placed upstream to the LacZ reporter gene.
as §1, §6
(§7) The same procedures described for NIH3T3 cells were followed for CV1 cells
as §3

[8] = test system: GAL4RXR + VP16CfEcR; assay: Transactivation of reporter gene through switch 1.3 in CHO cells; assay type: cell-based, Mus musculus; Choristoneura fumiferana; details: switch 1.3, pGAL4RELuc
Description: as §1, §3

[9] = test system: GAL4USP + VP16CfEcR; assay: Transactivation of reporter gene through switch 1.5 in CV1 cells; assay type: cell-based, Choristoneura fumiferana; details: switch 1.5, pGAL4RELuc
Description: This construct was prepared in the same way as switch 1.3 except MmRXRDEF was replaced with CfUSPDEF (SEQ ID NO: 67).
as §1, §6, §7, §3

[10] = test system: CfVgRXR + MmRXR; assay: Transactivation of reporter gene through switch 1.9 in 293 cells; assay type: cell-based, Choristoneura fumiferana; Mus musculus; details: switch 1.9, pIND(SP1)LacZ
Description: as §5, §1, §2, §3

[11] = test system: VP16CfEcR; assay: Transactivation of reporter gene through switch 1.7 in 3T3 cells; assay type: cell-based, Choristoneura fumiferana; details: switch 1.7, pEcRELuc
Description: Six ecdysone response elements (“EcRE”; SEQ ID NO: 55) from the hsp27 gene were placed upstream of the promoter and a luciferase gene (SEQ ID NO: 66). This switch most probably uses endogenous RXR.
as §1, §6, §3

[12] = test system: GAL4CfEcRVP16; assay: Transactivation of reporter gene through switch 1.6 in 293 cells; assay type: cell-based, Choristoneura fumiferana; details: switch 1.6, pGAL4RELuc
Description: (§8) This construct was prepared so that both the GAL4 DNABD and the VP16AD were placed on the same molecule. GAL4DNABD (SEQ ID NO: 43) and VP16AD (SEQ ID NO: 49) were fused to CfEcRDEF (SEQ ID NO: 3) at N-and C-termini respectively.
as §1, §2, §3

[13] = test system: GAL4CfEcRVP16; assay: Transactivation of reporter gene through switch 1.6 in CV1 cells; assay type: cell-based, Choristoneura fumiferana; details: switch 1.6, pGAL4RELuc
Description: as §8, §1, §6, §7, §3

[14] = test system: GAL4EcR + VP16USP; assay: Transactivation of reporter gene through switch 1.2 in CHO cells; assay type: cell-based, Choristoneura fumiferana; details: switch 1.2, pGAL4RELuc
Description: (§9) This construct was prepared in the same way as in switch 1.1 above except MmRXRDEF was replaced with the D, E and F domains from spruce budworm USP (“CfUSPDEF”; SEQ ID NO: 67). The constructs used in this example are similar to those disclosed in U.S. Pat. No. 5,880,333 except that Choristoneura fumiferana USP rather than Drosophila melanogaster USP was utilized.
as §1, §3

[15] = test system: GAL4EcR + VP16USP; assay: Transactivation of reporter gene through switch 1.2 in 3T3 cells; assay type: cell-based, Choristoneura fumiferana; details: switch 1.2, pGAL4RELuc
Description: as §9, §1, §6, §3

[16] = test system: CfVgRXR; assay: Transactivation of reporter gene through switch 1.10 in CHO cells; assay type: cell-based, Choristoneura fumiferana; details: switch 1.10, pIND(SP1)LacZ
Description: as §4, §1, §3

[17] = test system: CfEcR; assay: Transactivation through CfEcR- versus DmEcR-based switches in mammalian cell lines (Tables 1–4); parameters: species or system Choristoneura fumiferana
Description: as §3

[18] = test system: CfVgRXR + MmRXR; assay: Transactivation of reporter gene through switch 1.9 in CHO cells; assay type: cell-based, Choristoneura fumiferana; Mus musculus; details: switch 1.9, pIND(SP1)LacZ
Description: as §5, §1, §3

T1 sequence (P28700 whole entry, the tested form may be a part): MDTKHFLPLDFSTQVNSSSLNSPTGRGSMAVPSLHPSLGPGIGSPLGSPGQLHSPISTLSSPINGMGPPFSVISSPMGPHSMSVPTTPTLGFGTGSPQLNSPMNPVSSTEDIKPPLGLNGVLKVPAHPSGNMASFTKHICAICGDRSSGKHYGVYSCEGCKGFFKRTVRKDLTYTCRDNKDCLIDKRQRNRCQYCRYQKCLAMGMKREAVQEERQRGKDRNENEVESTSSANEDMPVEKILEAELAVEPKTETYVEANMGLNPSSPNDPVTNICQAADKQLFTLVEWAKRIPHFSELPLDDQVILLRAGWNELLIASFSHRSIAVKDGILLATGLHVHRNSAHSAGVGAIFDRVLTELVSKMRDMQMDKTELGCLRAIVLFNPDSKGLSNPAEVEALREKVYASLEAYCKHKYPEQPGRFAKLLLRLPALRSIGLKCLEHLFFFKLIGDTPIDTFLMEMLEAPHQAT
T1 sequence (P34021 whole entry E282G/G283S/G286V, the tested form may be a part): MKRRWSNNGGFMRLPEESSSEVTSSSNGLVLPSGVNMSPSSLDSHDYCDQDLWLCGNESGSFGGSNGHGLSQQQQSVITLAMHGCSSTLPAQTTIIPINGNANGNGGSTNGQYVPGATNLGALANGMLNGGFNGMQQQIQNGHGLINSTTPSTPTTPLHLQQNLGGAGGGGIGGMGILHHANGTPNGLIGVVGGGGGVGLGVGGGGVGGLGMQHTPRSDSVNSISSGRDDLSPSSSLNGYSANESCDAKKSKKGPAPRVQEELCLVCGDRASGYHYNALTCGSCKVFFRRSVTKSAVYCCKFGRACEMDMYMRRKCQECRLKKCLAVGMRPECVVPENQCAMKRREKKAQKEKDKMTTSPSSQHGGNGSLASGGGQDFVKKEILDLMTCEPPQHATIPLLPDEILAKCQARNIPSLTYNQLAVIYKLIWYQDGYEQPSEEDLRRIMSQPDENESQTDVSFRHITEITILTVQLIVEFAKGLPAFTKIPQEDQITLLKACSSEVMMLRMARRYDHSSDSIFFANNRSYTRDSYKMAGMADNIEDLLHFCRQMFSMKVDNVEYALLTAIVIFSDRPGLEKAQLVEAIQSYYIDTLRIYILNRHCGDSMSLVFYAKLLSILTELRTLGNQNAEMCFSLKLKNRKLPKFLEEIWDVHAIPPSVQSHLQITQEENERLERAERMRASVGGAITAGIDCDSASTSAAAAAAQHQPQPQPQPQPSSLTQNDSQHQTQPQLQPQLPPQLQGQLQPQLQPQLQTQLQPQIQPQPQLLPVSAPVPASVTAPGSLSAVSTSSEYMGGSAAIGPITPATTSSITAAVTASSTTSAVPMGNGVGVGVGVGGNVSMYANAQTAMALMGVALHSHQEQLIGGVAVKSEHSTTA

**Q.** Which “Mean Fold Activation Through N-(2-ethyl-3-methoxybenzoyl)-N′-(3,5-dimethylbenzoyl)-N′-t-butylhydrazine” value [1] does the source give for `CCc1c(OC)cccc1C(=O)NN(C(=O)c1cc(C)cc(C)c1)C(C)(C)C` [N-(2-ethyl-3-methoxybenzoyl)-N′-(3,5-dimethylbenzoyl)-N′-t-butylhydrazine] here?
**A.** The value was 21 fold.

**Q.** And the “Mean Fold Activation Through N-(2-ethyl-3-methoxybenzoyl)-N′-(3,5-dimethylbenzoyl)-N′-t-butylhydrazine” value [2]?
**A.** The value was 17 fold.

**Q.** And the “Mean Fold Activation Through N-(2-ethyl-3-methoxybenzoyl)-N′-(3,5-dimethylbenzoyl)-N′-t-butylhydrazine” value [3]?
**A.** The value was 3 fold.

**Q.** What about the “Mean Fold Activation Through N-(2-ethyl-3-methoxybenzoyl)-N′-(3,5-dimethylbenzoyl)-N′-t-butylhydrazine” value [4] of the same molecule?
**A.** Its value is 19 fold.

**Q.** And the “Mean Fold Activation Through N-(2-ethyl-3-methoxybenzoyl)-N′-(3,5-dimethylbenzoyl)-N′-t-butylhydrazine” value [5]?
**A.** Its value is 2 fold.

**Q.** And the “Mean Fold Induction at 1.0 μM Concentration” value ([6]; GAL4MmRXRDEF/VP16CfEcRCDEF (switch 1.3), 1.0 μM ligand)?
**A.** The value was 71 fold.

**Q.** What about the “Mean Fold Activation Through N-(2-ethyl-3-methoxybenzoyl)-N′-(3,5-dimethylbenzoyl)-N′-t-butylhydrazine” value ([6]; switch 1.3, pGAL4RELuc) of the same molecule?
**A.** The value was 47 fold.

**Q.** And the “Mean Fold Activation Through N-(2-ethyl-3-methoxybenzoyl)-N′-(3,5-dimethylbenzoyl)-N′-t-butylhydrazine” value [7]?
**A.** The value was 12 fold.

**Q.** And the “Mean Fold Activation with 50 μM N-(2-ethyl-3-methoxybenzoyl)-N′-(3,5-dimethylbenzoyl)-N′-t-butylhydrazine” value [8]?
**A.** Its value is 85 fold.

**Q.** And the “Mean Fold Activation Through N-(2-ethyl-3-methoxybenzoyl)-N′-(3,5-dimethylbenzoyl)-N′-t-butylhydrazine” value [9]?
**A.** The value was 3 fold.

**Q.** And the “Mean Fold Activation Through N-(2-ethyl-3-methoxybenzoyl)-N′-(3,5-dimethylbenzoyl)-N′-t-butylhydrazine” value [10]?
**A.** The value was 12 fold.

**Q.** And the “Mean Fold Activation Through N-(2-ethyl-3-methoxybenzoyl)-N′-(3,5-dimethylbenzoyl)-N′-t-butylhydrazine” value [11]?
**A.** Its value is 1 fold.

**Q.** And the “Mean Fold Activation Through N-(2-ethyl-3-methoxybenzoyl)-N′-(3,5-dimethylbenzoyl)-N′-t-butylhydrazine” value [12]?
**A.** The value was 3 fold.

**Q.** And the “Mean Fold Activation Through N-(2-ethyl-3-methoxybenzoyl)-N′-(3,5-dimethylbenzoyl)-N′-t-butylhydrazine” value [13]?
**A.** Its value is 6 fold.

**Q.** What about the “Mean Fold Activation with 50 μM N-(2-ethyl-3-methoxybenzoyl)-N′-(3,5-dimethylbenzoyl)-N′-t-butylhydrazine” value [14] of the same molecule?
**A.** Its value is 2 fold.

**Q.** What about the “Mean Fold Activation Through N-(2-ethyl-3-methoxybenzoyl)-N′-(3,5-dimethylbenzoyl)-N′-t-butylhydrazine” value [15] of the same molecule?
**A.** The value was 2 fold.

**Q.** And the “Mean Fold Activation with 50 μM N-(2-ethyl-3-methoxybenzoyl)-N′-(3,5-dimethylbenzoyl)-N′-t-butylhydrazine” value [16]?
**A.** Its value is 29 fold.

**Q.** And the “Potency as activator of CfEcR compared to DmEcR” value [17]?
**A.** The value was “more potent activators of CfEcR as compared to Drosophila melanogaster EcR (DmEcR)”.

**Q.** What about the “Mean Fold Activation with 50 μM N-(2-ethyl-3-methoxybenzoyl)-N′-(3,5-dimethylbenzoyl)-N′-t-butylhydrazine” value [18] of the same molecule?
**A.** Its value is 27 fold.
